No end group written: not given here.

14 substances from US12595591B2, “Peptide libraries having enhanced subsequence diversity and methods for use thereof” (ROCHE […], INC., priority 2019, dated 2026) can be followed below.

The target of assay [1] is T1, biotin-labeled DsbA (Escherichia coli, UniProt P0AEG4).
T1 construct: purchased abcam
T1 sequence (P0AEG4 20-208): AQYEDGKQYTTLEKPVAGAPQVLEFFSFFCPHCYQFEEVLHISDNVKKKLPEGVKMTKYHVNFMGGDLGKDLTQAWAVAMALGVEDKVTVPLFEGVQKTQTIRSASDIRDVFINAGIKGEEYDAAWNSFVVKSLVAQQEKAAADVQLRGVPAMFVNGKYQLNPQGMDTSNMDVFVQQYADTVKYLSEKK
Put plainly: Peptide microarray binding of biotin-labeled DsbA, Cy5-streptavidin fluorescence detection. Conditions: fluorescent signal intensity measured by peptide microarray. The text has this: Briefly, the peptide array was synthesized by light-directed array synthesis in a Roche NimbleGen Maskless Array Synthesizer (MAS) using an amino-functionalized substrate as previously reported (Forsström, et al., “Proteome-wide Epitope Mapping of Antibodies Using Ultra-dense Peptide Arrays,” Molecular & Cellular Proteomics 13:1585-1597 (2014) and Lyamichev, et al., “Stepwise Evolution Improves Identification of Diverse Peptides Binding to a Protein Target,” Nature Scientific Reports 7:12116 (2017), both of which are incorporated herein by reference in their entireties). L-amino acids were synthesized by Orgentis Chemicals GmbH. Custom amino acids were purchased from Lifetein. Cy5™-streptavidin was purchased from GE Healthcare, Blocker™ BSA (10%) in PBS from ThermoFisher, and SecureSeal™ hybridization chambers from Grace Bio-Labs. Final side chain deprotection was performed by incubating the microarray in 60 mM EDT and 25 mM TIPS in 95% TFA (v/v) for 30 min at room temperature. The microarray was then washed twice in methanol for 30 seconds, once in 1×TBST for 1 min, twice in TBS for 30 seconds, and then spun dry in a microcentrifuge equipped with an array holder. […] Here, 2.6 μL biotin-labeled DsbA (1.5 mg/mL, abcam) was incubated on the array in 49 μL binding buffer containing 100 mM HEPES (pH 7.3), 1% BSA, 250 mM NaCl, 20 mM L-glutathione-reduced, and 0.2 mM L-glutathione-oxidized in a hybridization chamber overnight at 4° C. After incubation, arrays were washed in water for 15 seconds placed directly into a streptavidin-Cy5 detection bath. Positive binding to DsbA was determined by the detection of Streptavidin-Cy5. Streptavidin-Cy5 binding to all arrays was performed with 20 μL streptavidin-Cy5 (1 μg/mL) in 30 mL binding buffer containing 10 mM Tris-HCl (pH 7.4), 1% Casein, 0.05% Tween-20 in a 30 mL pap jar for 1 hour at room temperature. After incubation, arrays were washed in 20 mM Tris-HCl (pH 7.8), 0.2 M NaCl, 1% SDS for 30 seconds followed by a 30 seconds wash in water. The arrays were then dried by spinning in a microcentrifuge equipped with an array holder. Data was analyzed by measuring Cy5 fluorescence intensity of the arrays and extracting data, as previously described in Lyamichev, et al. (2017).
To narrow the number of possible 15-mer peptides in both libraries down to approximately 3 million peptides, a calculation was run to select for the maximum diversity of 6mer peptide sequences. Each 15-mer sequence was replicated two times.

Assay [2] addresses T1, biotin-labeled DsbA. Kind of assay: Biacore kinetic analysis of peptide binding to immobilized biotin-labeled DsbA. As to the method: The discovered and incrementally optimized novel DsbA-binding peptides were subject to kinetic characterization. Kinetic analysis of the interaction between the discovered peptides and DsbA was performed using a Biacore XI00. Biotin-labeled DsbA (1 uM) was immobilized on streptavidin coated chip (GE Healthcare) to a target level of 1,000 response units in HBS-P+. […] Fourteen dilutions of peptide from 5000 nM to 0.6 nM in HBS-P+ were flowed over the DsbA coated chip in triplicate with a contact time of 120 seconds and a dissociation time of 600 seconds. […] All peptides were amidated on the C-terminus.
(In SPR one partner is held on a chip, and binding of the other changes the refractive index at the surface.)

As for VIVGQCLKK-NH2, the “SIGNAL INTENSITY” value on biotin-labeled DsbA [1] was 282.
Take WQYENWAITKWQCVK-NH2: on biotin-labeled DsbA [1], the “SIGNAL INTENSITY” value is 1427.
In the case of NDYQYKGQQCLDPKY-NH2, at biotin-labeled DsbA [1], the “SIGNAL INTENSITY” value was determined as 3623. Moreover, on biotin-labeled DsbA [2], the koff (in general, the rate constant with which the complex falls apart) is 0.0246 s⁻¹ and the kon (as a rule, the rate constant with which the complex forms) was 515000 M⁻¹ s⁻¹.
As to VIGQCLKN-NH2, the “SIGNAL INTENSITY” value on biotin-labeled DsbA [1] came to 588.
On to DFWHGDTCKVTQFDQ-NH2, for which, at biotin-labeled DsbA [1], the “SIGNAL INTENSITY” value was determined as 1750. On biotin-labeled DsbA [2], this substance yielded a koff of 0.0271 s⁻¹ and a kon of 130000 M⁻¹ s⁻¹.
As for DFWHGEQCKVTQFDQ-NH2, the “SIGNAL INTENSITY” value at biotin-labeled DsbA [1] came to 4590. In addition, at biotin-labeled DsbA [2], the koff amounted to 0.0139 s⁻¹ and the kon amounted to 259000 M⁻¹ s⁻¹.
With PSPWATCDF-NH2, the “SIGNAL INTENSITY” value on biotin-labeled DsbA [1] was 82.
Same read-out and setting: as for VILGQCLKQ-NH2, the figure is 965.
As for HNWAAQCLNPDQAKL-NH2, the “SIGNAL INTENSITY” value at biotin-labeled DsbA [1] is on record as 2640. For the same substance, at biotin-labeled DsbA [2], the koff stood at 0.0292 s⁻¹ and the kon amounted to 510000 M⁻¹ s⁻¹.
The like results for YVYGMCWKDYTDTDK-NH2 were, in that order, 2114, 0.0627 s⁻¹ and 538000 M⁻¹ s⁻¹.
As to SIIGMCYKKDPS-NH2, the “SIGNAL INTENSITY” value at biotin-labeled DsbA [1] worked out at 1365.
Take DFWHGETCKVTQFDQ-NH2: at biotin-labeled DsbA [1], the “SIGNAL INTENSITY” value worked out at 1801. On biotin-labeled DsbA [2], this substance had a koff of 0.0185 s⁻¹ and a kon of 220000 M⁻¹ s⁻¹.
HNWAAQCLKDQAKL-NH2: the “SIGNAL INTENSITY” value on biotin-labeled DsbA [1] turned out to be 1759. Further, on biotin-labeled DsbA [2], the koff stood at 0.0448 s⁻¹ and the on-rate (kon) stood at 509000 M⁻¹ s⁻¹.
The like results for YVYGMCWKDYTTDK-NH2 were, in that order, 2297, 0.057 s⁻¹ and 728000 M⁻¹ s⁻¹.
